Counter-ions that a name gives are not always drawn.
Test system: bacterial strains that express KPC β-lactamases
Experiment: Synergy MIC / standard BLI potentiation MIC assay against strains expressing KPC β-lactamases
Assay type: cell-based
Conditions: in the presence of a β-lactam; comparator Avibactam
Description: The experimental protocol was performed according to Clinical and Laboratory Standards Institute (CLSI) guidelines with modifications as described below (CLSI guidelines can be derived from the CLSI document M07-A9 published in January 2012: “Methods for Dilution Antimicrobial Susceptibility Tests for Bacteria That Grow Aerobically; Approved Standard-Ninth Edition”).
To prepare for MIC testing, frozen glycerol stocks of clinical isolates (Klebsiella pneumoniae, Eschericia coli, Enterobacter spp, Citrobacter spp, or Pseudomonas aeruginosa) were used to streak for isolated colonies on rich, non-selective, tryptic soy agar containing 5% sheep's blood (TSAB). Frozen glycerol stocks of laboratory engineered, isogenic E. coli strains, which contain cloned β-lactamase expressing plasmids were used to streak for isolated colonies on rich, selective LB agar supplemented with 25 μg/mL tetracycline to maintain the plasmid. All strains were incubated at 37° C. for 18-24 hrs.
On the day of testing, primary cultures were started by scraping off 5-10 colonies from the TSAB plates containing clinical strains or the tetracycline supplemented LB plates containing engineered strains. The clinical strain material was suspended in ˜5 mL of cation adjusted Mueller Hinton Broth (CAMHB) in 14 mL culture tubes. The engineered strain material was suspended in CAMHB (supplemented with 25 μg/mL tetracycline) in 14 mL culture tubes. All strains were incubated at 37° C. with aeration (200 rpm) for ˜2 hrs until the optical density at 600 nm (OD600) was >0.1.
The two compound components of the assay were each diluted in CAMHB and added to the 96-well broth microdilution assay plates. 50 μL of the β-lactam was added to each well of the assay plate in 2-fold dilutions with final concentrations ranging from 128 to 0.13 μg/mL. 25 μL, of the BLI compound was added to all wells in the broth microdilution plates at a final concentration of 4 μg/mL. Inoculum cultures were prepared by standardizing the primary cultures to OD600=0.1 and then adding 20 μL of the adjusted primary culture per 1 mL CAMHB for clinical strains or CAMHB (supplemented with tetracycline at 100 μg/mL) for engineered strains, so that the final inoculum density was ˜10^5 colony forming units per milliliter. Diluted inoculum cultures were used to inoculate 25 μl, per well in 96-well broth microdilution assay plates. The final volume of each well was 100 μL and contained a β-lactam at different concentrations, a BLIcompound at 4 μg/mL concentration, the bacterial culture at an OD600 of approximately 0.001 and when necessary tetracycline at 25 μg/mL.
Plates were incubated for 18-20 hours at 37° C. with aeration (200 rpm). Following incubation, growth was confirmed visually placing plates over a viewing apparatus (stand with a mirror underneath) and then OD600 was measured using a SpectraMax 340PC384 plate reader (Molecular Devices, Sunnyvale, Calif.). Growth was defined as turbidity that could be detected with the naked eye or achieving minimum OD600 of 0.1. MIC values were defined as the lowest concentration producing no visible turbidity.
The synergy MIC (sMIC) assay determines the concentration of the BLI required to potentiate the activity of a fixed concentration of a β-lactam antibiotic against β-lactamase producing bacterial strains. The experimental protocol was performed according to Clinical and Laboratory Standards Institute (CLSI) guidelines with modifications as described below (CLSI guidelines can be derived from the CLSI document M07-A9 published in January 2012: “Methods for Dilution Antimicrobial Susceptibility Tests for Bacteria That Grow Aerobically; Approved Standard-Ninth Edition”). […]

| SMILES | more active than Avibactam for at least one bacterial strain that expresses KPC β-lactamase and/or better spectrum of activity against KPC strains |
| --- | --- |
| O=C1N2C[C@@H](CC[C@H]2c2nnco2)N1OS(=O)(=O)O [Compound 701, (2S,5R)-2-(1,3,4-oxadiazol-2-yl)-7-oxo-1,6-diazabicyclo[3.2.1]octan-6-yl hydrogen sulfate] | more active than Avibactam |
| NCc1nnc([C@@H]2CC[C@@H]3CN2C(=O)N3OS(=O)(=O)O)o1 [Compound 702, (2S,5R)-2-(5-(aminomethyl)-1,3,4-oxadiazol-2-yl)-7-oxo-1,6-diazabicyclo[3.2.1]octan-6-yl hydrogen sulfate] | more active than Avibactam |
| NCCc1nnc([C@@H]2CC[C@@H]3CN2C(=O)N3OS(=O)(=O)O)o1 [Compound 703, (2S,5R)-2-(5-(2-aminoethyl)-1,3,4-oxadiazol-2-yl)-7-oxo-1,6-diazabicyclo[3.2.1]octan-6-yl hydrogen sulfate] | more active than Avibactam |
| N=C(N)NCCc1nnc([C@@H]2CC[C@@H]3CN2C(=O)N3OS(=O)(=O)O)o1 [Compound 705, (2S,5R)-2-(5-(2-guanidinoethyl)-1,3,4-oxadiazol-2-yl)-7-oxo-1,6-diazabicyclo[3.2.1]octan-6-yl hydrogen sulfate] | more active than Avibactam |
| NC(=O)c1nnc([C@@H]2CC[C@@H]3CN2C(=O)N3OS(=O)(=O)O)o1 [Compound 706, (2S,5R)-2-(5-carbamoyl-1,3,4-oxadiazol-2-yl)-7-oxo-1,6-diaza-bicyclo[3.2.1]octan-6-yl hydrogen sulfate] | more active than Avibactam |
| O=C1N2C[C@@H](CC[C@H]2c2nnc(C3CNC3)o2)N1OS(=O)(=O)O [Compound 708, (2S,5R)-2-(5-(azetidin-3-yl)-1,3,4-oxadiazol-2-yl)-7-oxo-1,6-diazabicyclo[3.2.1]octan-6-yl hydrogen sulfate] | more active than Avibactam |
| N=C(N)N1CC(c2nnc([C@@H]3CC[C@@H]4CN3C(=O)N4OS(=O)(=O)O)o2)C1 [Compound 709, (2S,5R)-2-(5-(1-carbamimidoylazetidin-3-yl)-1,3,4-oxadiazol-2-yl)-7-oxo-1,6-diazabicyclo[3.2.1]octan-6-yl hydrogen sulfate] | more active than Avibactam |
| O=C1N2C[C@@H](CC[C@H]2c2nnc(C3CCNC3)o2)N1OS(=O)(=O)O (stereo partly drawn) [Compound 710, (2S,5R)-7-oxo-2-(5-(pyrrolidin-3-yl)-1,3,4-oxadiazol-2-yl)-1,6-diazabicyclo[3.2.1]octan-6-yl hydrogen sulfate] | more active than Avibactam |
| O=C1N2C[C@@H](CC[C@H]2c2nnc(C3CCNCC3)o2)N1OS(=O)(=O)O [Compound 711, (2S,5R)-7-oxo-2-(5-(piperidin-4-yl)-1,3,4-oxadiazol-2-yl)-1,6-diazabicyclo[3.2.1]octan-6-yl hydrogen sulfate] | more active than Avibactam |
| NCCCc1nnc([C@@H]2CC[C@@H]3CN2C(=O)N3OS(=O)(=O)O)o1 [Compound 720, (2S,5R)-2-(5-(3-aminopropyl)-1,3,4-oxadiazol-2-yl)-7-oxo-1,6-diazabicyclo[3.2.1]octan-6-yl hydrogen sulfate] | more active than Avibactam |
| N=C(N)NCc1nnc([C@@H]2CC[C@@H]3CN2C(=O)N3OS(=O)(=O)O)s1 [Compound 721, (2S,5R)-2-(5-(guanidinomethyl)-1,3,4-thiadiazol-2-yl)-7-oxo-1,6-diazabicyclo[3.2.1]octan-6-yl hydrogen sulfate] | more active than Avibactam |
| CNCCc1nnc([C@@H]2CC[C@@H]3CN2C(=O)N3OS(=O)(=O)O)o1 [Compound 722, (2S,5R)-2-(5-(2-(methylamino)ethyl)-1,3,4-oxadiazol-2-yl)-7-oxo-1,6-diazabicyclo[3.2.1]octan-6-yl hydrogen sulfate] | more active than Avibactam |
| N=C(N)NCC1(c2nnc([C@@H]3CC[C@@H]4CN3C(=O)N4OS(=O)(=O)O)o2)CC1 [Compound 723, (2S,5R)-2-(5-(1-(guanidinomethyl)cyclopropyl)-1,3,4-oxadiazol-2-yl)-7-oxo-1,6-diazabicyclo[3.2.1]octan-6-yl hydrogen sulfate] | more active than Avibactam |
| NC1(Cc2nnc([C@@H]3CC[C@@H]4CN3C(=O)N4OS(=O)(=O)O)o2)CC1 [Compound 724, (2S,5R)-2-(5-((1-aminocyclopropyl)methyl)-1,3,4-oxadiazol-2-yl)-7-oxo-1,6-diazabicyclo[3.2.1]octan-6-yl hydrogen sulfate] | more active than Avibactam |
| O=C1N2C[C@@H](CC[C@H]2c2nnc(CNC3CNC3)o2)N1OS(=O)(=O)O [Compound 726, (2S,5R)-2-(5-((azetidin-3-ylamino)methyl)-1,3,4-oxadiazol-2-yl)-7-oxo-1,6-diazabicyclo[3.2.1]octan-6-yl hydrogen sulfate] | more active than Avibactam |
| N[C@H]1C[C@H](c2nnc([C@@H]3CC[C@@H]4CN3C(=O)N4OS(=O)(=O)O)o2)C1 [Compound 727, (2S,5R)-2-(5-((1r,3S)-3-aminocyclobutyl)-1,3,4-oxadiazol-2-yl)-7-oxo-1,6-diazabicyclo[3.2.1]octan-6-yl hydrogen sulfate] | more active than Avibactam |
| N[C@H]1C[C@@H](Cc2nnc([C@@H]3CC[C@@H]4CN3C(=O)N4OS(=O)(=O)O)o2)C1 [Compound 728, (2S,5R)-2-(5-(((1s,3R)-3-aminocyclobutyl)methyl)-1,3,4-oxadiazol-2-yl)-7-oxo-1,6-diazabicyclo[3.2.1]octan-6-yl hydrogen sulfate] | more active than Avibactam |
| N[C@@H]1CC[C@H](c2nnc([C@@H]3CC[C@@H]4CN3C(=O)N4OS(=O)(=O)O)o2)C1 [Compound 729, (2S,5R)-2-(5-((1S,3R)-3-aminocyclopentyl)-1,3,4-oxadiazol-2-yl)-7-oxo-1,6-diazabicyclo[3.2.1]octan-6-yl hydrogen sulfate] | more active than Avibactam |

Reference: patent US8933232B2, “1,3,4-oxadiazole and 1,3,4-thiadiazole beta-lactamase inhibitors” (priority 2012, dated 2015)
